What follows are compounds tested against KAT2A (Homo sapiens (Human), UniProt Q92830) (assay: KAT2A acetyltransferase biochemical assay (RapidFire mass spectrometry, AcCoA to CoA)). Conditions: read-out: KAT2A Ki at 1 μM AcCoA, 5 μM H3 1-21 peptide, 0.5 nM KAT2A, 90-minute reaction.
KAT2A, sequence (Q92830 whole entry): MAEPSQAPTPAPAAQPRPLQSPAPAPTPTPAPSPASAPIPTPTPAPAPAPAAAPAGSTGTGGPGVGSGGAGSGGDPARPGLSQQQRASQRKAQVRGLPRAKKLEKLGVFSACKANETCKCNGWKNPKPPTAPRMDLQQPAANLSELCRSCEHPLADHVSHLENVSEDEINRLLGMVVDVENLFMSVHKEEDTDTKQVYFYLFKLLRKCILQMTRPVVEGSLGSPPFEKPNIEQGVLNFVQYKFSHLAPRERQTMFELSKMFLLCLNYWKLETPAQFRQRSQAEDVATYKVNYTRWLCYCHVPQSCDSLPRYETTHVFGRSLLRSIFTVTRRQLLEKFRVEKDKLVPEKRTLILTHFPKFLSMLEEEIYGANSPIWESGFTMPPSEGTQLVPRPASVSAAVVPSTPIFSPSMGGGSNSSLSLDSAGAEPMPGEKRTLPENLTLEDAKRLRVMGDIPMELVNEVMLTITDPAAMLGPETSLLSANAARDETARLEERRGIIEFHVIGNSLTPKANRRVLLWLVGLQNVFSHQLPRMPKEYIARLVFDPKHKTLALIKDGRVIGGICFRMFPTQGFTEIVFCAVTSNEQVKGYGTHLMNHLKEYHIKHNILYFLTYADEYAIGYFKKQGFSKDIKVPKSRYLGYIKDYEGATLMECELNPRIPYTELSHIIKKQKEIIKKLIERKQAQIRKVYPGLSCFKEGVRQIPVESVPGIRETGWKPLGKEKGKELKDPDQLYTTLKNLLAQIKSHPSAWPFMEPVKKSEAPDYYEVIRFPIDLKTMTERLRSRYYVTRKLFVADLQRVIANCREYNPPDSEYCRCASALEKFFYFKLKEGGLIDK
Method: • A) Compound preparation • 1) Prepare 10 mM stock solutions in 100% DMSO from solid material. • 2) Serial dilute 10 mM, 1 mM, 0.1 or 0.01 mM compound stocks 3-fold in 100% DMSO for 11-point dose response. • B) Reagent preparation • 1) Prepare 1×assay buffer containing 40 mM bis tris propane pH 8.0, 10 mM NaCl, 0.5 mM EDTA, and 0.002% Tween-20. • 2) Dilute Histone peptide (CPC Scientific) and KAT enzyme together in assay buffer to 1.25×. • 3) Dilute AcCoA (Sigma) in assay buffer to 5×. • C) Enzyme reaction • 1) Final reaction conditions for each KAT assay in a 100ul assay reaction volume: • i) KAT2A 0.5 nM, 1 uM AcCoA, 5 uM H3 1-21 peptide, 90-minute reaction • ii) KAT2B 0.5 nM, 1 uM AcCoA, 5 uM H3 1-21 peptide, 90-minute reaction • 2) Add 2 ul of diluted compound series to the assay plate (96-well round-bottom polypropylene plates) or 2 ul of DMSO for control wells. • 3) Add 11 μL of 10% formic acid to 100% effect (HPE) control wells. • 4) Add 80 ul of 1.25× Histone peptide/KAT mix to the assay plate via Multidrop Combi (ThermoFisher). Incubate 15 min at room temperature. • 5) Add 20 ul of 5× AcCoA to the assay plate via Multidrop Combi. • 6) Stop the reaction after the indicated time with the addition of 11 ul of 10% formic acid via Multidrop Combi. • 7) Each reaction was analyzed using Rapid Fire mass spectrometry platform.
KAT enzymes were expressed using a baculovirus expression system and purified at Pfizer, La Jolla. […] Acetyl coenzyme A was purchased from Sigma-Aldrich (St. Louis, MO). All other biochemical reagents were purchased from Sigma-Aldrich or ThermoFisher Scientific (Waltham, MA).
KAT assays were performed at room temperature in assay buffer containing 1 μM AcCoA, 5 μM histone peptide, 40 mM bis tris propane pH 8.0, 10 mM NaCl, 0.5 mM EDTA 0.002% Tween-20. 80 ul of 1.25× Histone peptide/enzyme mix was added to a 96-well round-bottom polypropylene assay plate containing 2 ul of serially diluted test compound in 100% dimethyl sulfoxide (DMSO). To start the reaction, 20 ul of 5× AcCoA solution was added to the assay plate. KAT assays were terminated after 90 minutes with the addition of 11 ul of 10% formic acid. All assays used histone H3 (1-21) peptide. The final enzyme concentration for each KAT was as follows: KAT2A, 0.5 nM; KAT2B, 0.5 nM. […] Each reaction was analyzed using Rapid Fire mass spectrometry platform. This methodology leverages an Agilent 6495 triple quadrupole (QQQ) mass spectrometer coupled to a RapidFire model 365 to specifically capture and measure KAT2 acetyltransferase activity, converting AcCoA (substrate) to CoA (product).
Area under the curve (AUC) for both substrate and product peaks was determined for KAT2 at M.W. 809.6 [Substrate+H]+ and 767.3 [Product+H]+ with a +/−1 Da tolerance, respectively. Acetyltransferase activity (% of DMSO control) was calculated by: ((AUCProduct/AUCsubstrate)-AUCHPE)/(AUCZPE-AUCHPE))*100. Ki values were determined by fitting the % acetyltransferase activity at each inhibitor concentration to the Morrison equation for tightbinding competitive inhibitors using Pfizer proprietary curve fitting software.
To determine the inhibition of KAT enzymatic activity by test compounds, assay reactions were conducted in a volume of 100 μL in 96-well round-bottom polypropylene assay plate. The reactions were performed in assay buffer (40 mM bis tris propane, pH 8, 10 mM NaCl, 0.5 mM EDTA, 0.002% Tween-20).

| Compound | Ki [nM] |
| --- | --- |
| CC(C)c1ccccc1-c1c(CC(=O)O)cccc1O[C@@H]1CC[C@@H](NC(=O)[C@@H]2CC(C)(C)CN2C)C1 (atropisomer, axis not shown) [Example H5, [(1ψ)-2′-(propan-2-yl)-6-({(1R,3R)-3-[(1,4,4-trimethyl-L-prolyl)amino]cyclopentyl}oxy)[1,1′-biphenyl]-2-yl]acetic acid] | 9040 |
| CC1(C)C[C@@H](C(=O)N[C@@H]2CC[C@@H](Oc3cccc(C(=O)O)c3-c3cccc(F)c3C3CCC3)C2)CN1 (atropisomer, axis not shown) [Example H8, (1ψ)-2′-cyclobutyl-6-{[(1R,3R)-3-{[(3ξ)-5,5-dimethylpyrrolidine-3-carbonyl]amino}cyclopentyl]oxy}-3′-fluoro[1,1′-biphenyl]-2-carboxylic acid] | 348 |
| CC1(C)C[C@@H](C(=O)N[C@@H]2CC[C@@H](Oc3cccc(C(=O)O)c3-c3cccc(F)c3C3CCC3)C2)CN1 (atropisomer, axis not shown) [Example H10] | 26400 |
| CC1(C)C[C@H](C(=O)N[C@@H]2CC[C@@H](Oc3cccc(C(=O)O)c3-c3cccc(F)c3C3CCC3)C2)CN1 (atropisomer, axis not shown) [Example H11, (1ψ)-2′-cyclobutyl-6-{[(1R,3R)-3-{[(3ξ)-5,5-dimethylpyrrolidine-3-carbonyl]amino}cyclopentyl]oxy}-3′-fluoro[1,1′-biphenyl]-2-carboxylic acid] | 1100 |
| CN1CC(C)(C)C[C@H]1C(=O)N[C@@H]1CC[C@@H](Oc2cccc(C(=O)NS(C)(=O)=O)c2-c2cccc(F)c2C2CCC2)C1 (atropisomer, axis not shown) [Example I2, N-[(1R,3R)-3-({(1ψ)-2′-cyclobutyl-3′-fluoro-6-[(methanesulfonyl)carbamoyl][1,1′-biphenyl]-2-yl}oxy)cyclopentyl]-1,4,4-trimethyl-L-prolinamide] | 1970 |
| CN1CC(C)(C)C[C@H]1C(=O)N[C@@H]1CC[C@@H](Oc2cccc(CC(=O)NS(N)(=O)=O)c2-c2ccccc2C2CCC2)C1 (atropisomer, axis not shown) [Example I6, N-[(1R,3R)-3-({(1ψ)-2′-cyclobutyl-6-[2-oxo-2-(sulfamoylamino)ethyl][1,1′-biphenyl]-2-yl}oxy)cyclopentyl]-1,4,4-trimethyl-L-prolinamide] | 387 |
| CN1CC2(CCCC2)C[C@@H]1C(=O)N[C@@H]1CC[C@@H](Oc2cccc(C(=O)NS(C)(=O)=O)c2-c2cccc(F)c2C2CCC2)C1 (atropisomer, axis not shown) [Example I8, (3ξ)-N-[(1R,3R)-3-({(1ψ)-2′-cyclobutyl-3′-fluoro-6-[(methanesulfonyl)carbamoyl][1,1′-biphenyl]-2-yl}oxy)cyclopentyl]-2-methyl-2-azaspiro[4.4]nonane-3-carboxamide] | 1360 |
| CN1CC2(CCCC2)C[C@H]1C(=O)N[C@@H]1CC[C@@H](Oc2cccc(C(=O)NS(C)(=O)=O)c2-c2cccc(F)c2C2CCC2)C1 (atropisomer, axis not shown) [Example I9, (3ξ)-N-[(1R,3R)-3-({(1ψ)-2′-cyclobutyl-3′-fluoro-6-[(methanesulfonyl)carbamoyl][1,1′-biphenyl]-2-yl}oxy)cyclopentyl]-2-methyl-2-azaspiro[4.4]nonane-3-carboxamide] | 411 |
| O=C(O)Cc1ccc(O[C@@H]2CC[C@@H](NC(=O)[C@]3(F)CNC4(CCC4)C3)C2)c(-c2cccc(F)c2C2CCC2)c1 (single isomer, unassigned) [Example A8] | > 400 |
| C[C@H](C(=O)O)c1ccc(O[C@@H]2CC[C@@H](NC(=O)[C@@]3(F)CNC4(CCC4)C3)C2)c(-c2cccc(F)c2C2CCC2)c1 (single isomer, unassigned) [Example A17] | > 1000 |
| C[C@H](C(=O)O)c1ccc(O[C@@H]2CC[C@@H](NC(=O)[C@@]3(F)CNC4(CCC4)C3)C2)c(-c2cccc(F)c2C2CCC2)c1 (single isomer, unassigned) [Example A18] | 751 |
| CC1(C)CNC[C@](F)(C(=O)N[C@@H]2CC[C@@H](Oc3ccc(CC(=O)O)cc3-c3cccc(F)c3C3CCC3)C2)C1 (single isomer, unassigned) [Example A24] | 15.4 |

From patent US20250188030A1, “Biphenyl and Phenylpyridine Compounds” (Pfizer Inc., priority 2023, published 2025)
